Test results taken from patent publication US8404692B2, “Pyrimidin-4-yl-3, 4-dihydro-2H-pyrrolo [1,2A] pyrazin-1-one compounds” (Cyclacel Limited, priority 2005, dated 2013).
pIC50, pKi: −log10 of the molar value.

What was measured:
CDK2/E = CDK2/E (Homo sapiens, UniProt P24941); assay: In vitro kinase assay CDK2/E; assay type: biochemical; settings: in vitro kinase data
Protocol: The compounds of the invention above were investigated for their ability to inhibit the enzymatic activity of various protein kinases. This was achieved by measurement of incorporation of radioactive phosphate from ATP into appropriate polypeptide substrates. Recombinant protein kinases and kinase complexes were produced or obtained commercially. Assays were performed using 96-well plates and appropriate assay buffers (typically 25 mM β-glycerophosphate, 20 mM MOPS, 5 mM EGTA, 1 mM DTT, 1 mM […], pH 7.4), into which were added 2-4 μg of active enzyme with appropriate substrates. The reactions were initiated by addition of Mg/ATP mix (15 mM MgCl2+100 μM ATP with 30-50 kBq per well of [γ-^32P]-ATP) and mixtures incubated as required at 30° C. Reactions were stopped on ice, followed by filtration through p81 filterplates or GF/C filterplates (Whatman Polyfiltronics, Kent, UK). After washing 3 times with 75 mM aq orthophosphoric acid, plates were dried, scintillant added and incorporated radioactivity measured in a scintillation counter (TopCount, Packard Instruments, Pangbourne, Berks, UK). Compounds for kinase assay were made up as 10 mM stocks in DMSO and diluted into 10% DMSO in assay buffer. […]

human CDK7/cyclin H = human CDK7/cyclin H (Homo sapiens, UniProt P50613); assay: CDK 7 and 9 assays: CDK7/H; assay type: biochemical; settings: in vitro kinase data
Protocol: The compounds of the invention above were investigated for their ability to inhibit the enzymatic activity of various protein kinases. This was achieved by measurement of incorporation of radioactive phosphate from ATP into appropriate polypeptide substrates. Recombinant protein kinases and kinase complexes were produced or obtained commercially. Assays were performed using 96-well plates and appropriate assay buffers (typically 25 mM β-glycerophosphate, 20 mM MOPS, 5 mM EGTA, 1 mM DTT, 1 mM […], pH 7.4), into which were added 2-4 μg of active enzyme with appropriate substrates. The reactions were initiated by addition of Mg/ATP mix (15 mM MgCl2+100 μM ATP with 30-50 kBq per well of [γ-^32P]-ATP) and mixtures incubated as required at 30° C. Reactions were stopped on ice, followed by filtration through p81 filterplates or GF/C filterplates (Whatman Polyfiltronics, Kent, UK). After washing 3 times with 75 mM aq orthophosphoric acid, plates were dried, scintillant added and incorporated radioactivity measured in a scintillation counter (TopCount, Packard Instruments, Pangbourne, Berks, UK). Compounds for kinase assay were made up as 10 mM stocks in DMSO and diluted into 10% DMSO in assay buffer. Data was analysed using curve-fitting software (GraphPad Prism version 3.00 for Windows, GraphPad Software, San Diego Calif. USA) to determine IC50 values (concentration of test compound which inhibits kinase activity by 50%).
CTD peptide substrate (biotinyl-Ahx-(Tyr-Ser-Pro-Thr-Ser-Pro-Ser)4-NH2; 1-2 mg/mL) and recombinant human CDK7/cyclin H, CDK9/cyclin T1, or CDK9/cyclin K (0.5-2 μg) were incubated for 45 min at 30° C. in the presence of varying amounts of test compound in 20 mM MOPS pH 7.2, 25 mM β-glycerophosphate, 5 mM EGTA, 1 mM DTT, 1 mM sodium vanadate, 15 mM MgCl2, and 100 μM ATP (containing a trace amount of ^32PγATP) in a total volume of 25 μL in a 96-well microtiter plate. […] Microscint 40 scintillation liquid (50 μL) was added to each well, and the amount of ^32P incorporation for each sample was measured using a Packard Topcount microplate scintillation counter.

[1] = tested on: nuclear phospho-Histone H3 and/or MPM2 staining; assay: Cellomics Arrayscan assay for mitotic index (PH3 and MPM2 staining); assay type: cell-based; settings: for pIC50: IC50 of phosphorylated Histone H3 staining normalised using MPM2 staining, read-out: MI (Cellomics) PH3/MPM2 IC50*; for MI (Cellomics) MPM2 % of Control**: cells stained with MPM2 Ab after treatment, as % of MPM2 stained cells treated with vehicle (DMSO)
Protocol: The percentage of cells with nuclear phospho-Histone H3 and/or MPM2 staining were determined in 96-well plate assays using the Cellomics Arrayscan Mitotic Index HitKit protocol (Cellomics Inc). Briefly, cells were plated at 10^4 cells per well and incubated for 16-18 h at 37° C. Compounds were added and the cells incubated for the appropriate time before a 15 min fixation in 3.7% formaldehyde in wash buffer (Cellomics Inc.). Cells were permeabilised in 0.2% Triton in wash buffer for 15 min, washed, then incubated with primary antibodies that specifically recognise mitotic epitopes; rabbit anti-phosphohistone H3 (Upstate 06570) or mouse anti-phospho-Ser/Thr-Pro MPM2 (Upstate 05-368). After a 1 h incubation cells were washed and incubated with secondary FITC-conjugated anti-mouse and/or TRITC-conjugated anti-rabbit secondary antibodies (Jackson laboratories) and Hoescht dye. After a further 1 h incubation the cells were washed, then the plate was analysed using a Cellomics Arrayscan II automated fluorescent microscopy system to detect nuclear fluorescent staining. Data for 2000 cells per well were stored and the percentage of cells expressing mitotic epitopes compared to total cells (stained with Hoescht dye) was calculated using the Cellomics mitotic index algorithm.

A2780 = assay: MTT cytotoxicity assay A2780; assay type: cell-based; settings: Homo sapiens; A2780 cells, 96-h MTT
Protocol: (§1) The compounds of the invention were subjected to a standard cellular proliferation assay using cell lines […] and MiaPaCa (obtained from The European Collection of Cell Cultures). […] C.; Thomas, D. G.; Darling, J. L. Anti Cancer Drugs 1996, 7, 331-8; Loveland, B. E.; Johns, T. G.; Mackay, I. R.; Vaillant, F.; Wang, Z. X.; Hertzog, P. J. Biochemistry International 1992, 27, 501-10). In short: cells were seeded into 96-well plates according to doubling time and incubated overnight at 37° C. […] MTT was made up as a stock of 5 mg/mL in cell media and filter-sterilised. Media was removed from cells followed by a wash with 200 μL PBS. MTT solution was then added at 20 μL per well and incubated in the dark at 37° C. for 4 h. MTT solution was removed and cells again washed with 200 μL PBS. MT dye was solubilised with […] per well of DMSO with agitation. Absorbance was read at 540 nm and data analysed using curve-fitting software (GraphPad Prism version 3.00 for Windows, GraphPad Software, San Diego Calif. USA) to determine IC50 values (concentration of test compound which inhibits cell growth by 50%).

MiaPaCa = assay: MTT cytotoxicity assay MiaPaCa; assay type: cell-based; settings: Homo sapiens, MIA PaCa-2; MiaPaCa cells, 96-h MTT
Protocol: as §1

aurora-A (human) = target: T1, aurora-A (human) (Homo sapiens, UniProt O14965); assay: Aurora-A (human) kinase assay; assay type: biochemical; settings: read-out: Activity (Aurora A activity, IC50 grading)
T1 construct: purchased Upstate, Dundee, UK
T1 sequence (O14965 1-403): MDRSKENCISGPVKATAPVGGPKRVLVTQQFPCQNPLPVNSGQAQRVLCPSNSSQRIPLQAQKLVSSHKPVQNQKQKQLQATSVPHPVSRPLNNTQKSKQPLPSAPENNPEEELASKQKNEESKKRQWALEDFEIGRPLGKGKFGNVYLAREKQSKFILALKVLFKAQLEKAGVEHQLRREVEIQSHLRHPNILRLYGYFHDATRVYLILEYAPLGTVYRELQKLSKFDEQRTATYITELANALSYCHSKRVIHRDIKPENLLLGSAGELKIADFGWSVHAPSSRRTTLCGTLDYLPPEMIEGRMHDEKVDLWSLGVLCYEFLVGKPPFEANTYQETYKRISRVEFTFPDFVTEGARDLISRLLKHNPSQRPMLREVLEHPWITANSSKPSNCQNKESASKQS
In short: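 Radiometric assay measuring [γ-32P] transfer from 100 μM ATP to 500 μM Kemptide by 2-5 ng active human aurora-A, pH 7.5 buffer, 30 min at 30° C. Incorporated label captured on P81 filters and counted by scintillation; IC50 from curve fitting.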

human CDK7/cyclin H, sequence (P50613 whole entry): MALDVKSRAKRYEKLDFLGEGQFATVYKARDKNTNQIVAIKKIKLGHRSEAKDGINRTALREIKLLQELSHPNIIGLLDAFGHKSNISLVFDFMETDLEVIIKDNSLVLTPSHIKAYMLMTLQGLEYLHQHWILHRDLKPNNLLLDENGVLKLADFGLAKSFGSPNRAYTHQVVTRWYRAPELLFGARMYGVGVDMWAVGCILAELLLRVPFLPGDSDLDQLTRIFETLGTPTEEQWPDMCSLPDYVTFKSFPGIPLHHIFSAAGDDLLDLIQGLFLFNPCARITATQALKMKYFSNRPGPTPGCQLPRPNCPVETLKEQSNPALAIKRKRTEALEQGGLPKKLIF
human CDK7/cyclin H, sequence (P51946 whole entry partner): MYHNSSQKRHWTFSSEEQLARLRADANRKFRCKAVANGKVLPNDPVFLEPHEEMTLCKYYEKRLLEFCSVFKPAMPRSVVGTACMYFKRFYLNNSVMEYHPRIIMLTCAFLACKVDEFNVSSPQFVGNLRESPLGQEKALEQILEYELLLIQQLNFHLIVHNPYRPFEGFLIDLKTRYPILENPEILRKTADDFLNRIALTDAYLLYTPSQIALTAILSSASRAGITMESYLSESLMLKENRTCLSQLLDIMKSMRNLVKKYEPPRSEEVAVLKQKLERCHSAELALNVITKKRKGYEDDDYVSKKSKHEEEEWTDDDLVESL

Row | pKi (CDK2/E) | pKi (human CDK7/cyclin H) | pIC50 (aurora-A (human)) | Compound | pIC50 [1] | MI (Cellomics) MPM2 % of Control** [1] [%] | pIC50 (A2780) | pIC50 (MiaPaCa)
1 | 5.95 | 5.52 | > 6.00 | Cc1c(-c2ccnc(Nc3ccc(F)cc3)n2)c(C)n2c1C(=O)NCC2 [Example I-1, 7-[2-(4-Fluoro-phenylamino)-pyrimidin-4-yl]-6,8-dimethyl-3,4-dihydro-2H-pyrrolo[1,2-a]pyrazin-1-one] | 4.79 | 239 | 5.35 | < 5.00
2 |  | 5.47 | > 6.00 | Cc1c(-c2ccnc(Nc3ccc(N4CCOCC4)cc3)n2)c(C)n2c1C(=O)NCC2 [Example I-2, 6,8-Dimethyl-7-[2-(4-morpholin-4-yl-phenylamino)-pyrimidin-4-yl]-3,4-dihydro-2H-pyrrolo[1,2-a]pyrazin-1-one] | 5.04 | 333 | 6.24 | 5.74
3 |  | 5.55 | > 7.00 | COc1cc(Nc2nccc(-c3c(C)c4n(c3C)CCNC4=O)n2)ccc1N1CCOCC1 [Example I-3, 7-[2-(3-Methoxy-4-morpholin-4-yl-phenylamino)-pyrmidin-4-yl]-6,8-dimethyl-3,4-dihydro-2H-pyrrolo[1,2-a]pyrazin-1-one] | 5.32 | 317 | 6.12 | 5.73
